{"source": "patent US20100029654A1", "about": "“CARDIOVASCULAR COMPOSITIONS AND USE OF THE SAME FOR THE TREATMENT OF ALZHEIMER'S DISEASE” (MOUNT SINAI SCHOOL OF MEDICINE, priority 2006, published 2010)", "key": {"[1]": {"system": "primary cortico-hippocampal neuron cultures", "experiment": "MTT in primary screening"}, "[2]": {"experiment": "valsartan concentration in blood (serum) by MRM mass spectrometry", "type": "in vivo, mouse", "conditions": "chronically valsartan-treated mice (40 mg/kg)", "from_the_text": "A series high throughput studies were initiated to assess and quantify antihypertensive drug levels and related metabolites in Tg 2576 and WT controls following in vivo treatments. […] Presently, using QSTAR (QqTOF) mass spectrometry, which delivers high sensitivity and resolution as well as unparalleled mass accuracy for determination of molecular weights of drugs and related metabolites at femtomole levels, the inventor is proceeding with studies aimed at detecting and eventually quantitating antihypertensive drugs and related metabolites in the brain or CSF. Thus, these technologies will accurate determination of the penetration of the blood brain barrier of candidate Aβ lowering antihypertensives in response to chronic treatments in vivo."}, "[3]": {"system": "Aβ1-42", "experiment": "Aβ1-42 content in conditioned medium of primary cortico-hippocampal neuron cultures from Tg2576 mice (ELISA; primary and secondary dose-response screening)", "type": "cell-based, mouse"}, "[4]": {"molecular_target": "T1, Aβ1-42 peptide (Homo sapiens, UniProt P05067)", "T1 construct": "Lyophilized Aβ1-42 peptide was dissolved", "T1 sequence (P05067 672-713 limits assumed)": "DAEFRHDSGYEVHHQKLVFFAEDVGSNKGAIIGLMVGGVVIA", "experiment": "Aβ-peptide oligomerization assay in vitro (Western blot, A11 dot blot)", "type": "biochemical", "description": "Aβ-peptideoligomerization assay in vitro: Lyophilized Aβ1-42 peptide was dissolved in 1,1,1,3,3,3,-hexafluoro-2-propanol (HFIP, from Sigma), incubated at room temperature for 60 min, aliquoted, vacuum dried and stored at −80° C. Aβ peptide was dissolved in DMSO and diluted into ddH2O to a final concentration of 100 μg/ml. The peptide was then mixed with equal volume of drugs and incubated at 37° C. for 1 day (Klein, W. L. 2002. Neurochemistry International 41:345-352).\nFollowing incubation, samples were centrifuged at 14,000×g for 10 min at 4° C. Supernatants were mixed with 2× SDS sample buffer and separated on a 10-20% Tris-Tricine gradient SDS gel (Invitrogen). The separated peptides were subjected to Western blot using 6E10 antibody (1:1000, Signet, St. Louis). Immunoreactive signals were visualized by using enhanced chemiluminescence detection (Amersham), and quantified densitometrically (Quantity One, Bio-Rad).\nImmunoreactive signals were detected and quantified as described above."}, "[5]": {"system": "primary cortico-hippocampal neuron cultures", "experiment": "lactate dehydrogenase (LDH) activity assay in parallel neuron cultures", "quoted_text": "For in vitro treatments drugs available from “The Spectrum Collection” in stocks of 10 mM in DMSO were applied directly to cultures to the desired concentrations (final 1% DMSO); control primary neuron cultures from Tg2576 embryos were treated with vehicle resulting in a final 1% DMSO.\nCell viability was assessed using a commercial available LDH assay kit according to the manufacture's instruction (Promega)."}, "[6]": {"system": "Aβ1-40", "experiment": "Aβ1-40 content in conditioned medium of primary cortico-hippocampal neuron cultures from Tg2576 mice (ELISA; primary and secondary dose-response screening)", "type": "cell-based, mouse", "conditions": "for Ab1-40 (% of ctl): drug 100 μM", "method_in_brief": "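Primary cortico-hippocampal neurons from embryonic Tg2576 mice were plated at 1.0×10^5 cells per well on poly-D-lysine-coated 96-well plates in Neurobasal with 2% B27, 0.5 mM L-glutamine and 1% penicillin-streptomycin. Cultures received drug in 1% DMSO, and Aβ1-40 in the conditioned medium was measured by BioSource ELISA 24 hours after treatment, relative to vehicle controls.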"}, "[7]": {"system": "Tg2576 mice", "experiment": "blood pressure (systolic, diastolic, MAP) by tail-cuff", "type": "in vivo, mouse", "description": "FIG. 1 Tg2576 mice are characterized by normal blood pressure under basal conditions. Baseline measurements of systolic, diastolic blood pressure, and mean arteriole blood pressure (MAP) in ˜11 month old female Tg2576 mice. Strain-, age-, gender-matched WT mice were measured using a commercial blood pressure analysis system designed specifically for small rodents (Hatteras Instruments, NC). Following manufacturer's instruction, mice were temporarily immobilized in a restraining chamber and an inflated tail-cuff wrapped around the tail was used to measure the systolic pressure, diastolic pressure, and MAP. Each blood pressure determination was calculated as the mean of 10 individual measurements per animal (n=6-10 group).\nFIG. 6A-C show body weight of mice in response to ˜3 weeks of treatment. […] FIG. 6D-F show the assessment of systolic, diastolic, and MAP blood pressure in Tg2576 mice in response to drug doses below or within the range of those prescribed in hypertension. Blood pressure measurements were conducted using a commercial blood pressure analysis system designed specifically for small rodents (Hatteras Instruments, NC). Following manufacturer's instruction, mice were temporarily immobilized in a restraining chamber and an inflated tail-cuff wrapped around the tail was used to measure pressures. Each blood pressure determination was calculated as the mean of 10 individual measurements per animal. In A-F, values represent mean±SEM values, n=3-5 mice per group. 2-tailed t-test: *P<0.05.\nAssessment of blood pressure and glucose utilization. Mouse blood pressure was routinely recorded using a commercial blood pressure analysis system designed specifically for small rodents (Hatteras Instruments, NC). […] Briefly, mice were given a single dose of glucose post-prandially (i.p. 2 g/kg body weight). Blood was collected from the tail-vein periodically over a 2-hour period. Blood glycemic content was assessed using the OneTouch LifeScan System, (LifeScan, Milpitas, Calif.) following the manufacturer's instruction."}, "[8]": {"molecular_target": "β-secretase (Mus musculus, UniProt P56818)", "sequence (P56818 46-501)": "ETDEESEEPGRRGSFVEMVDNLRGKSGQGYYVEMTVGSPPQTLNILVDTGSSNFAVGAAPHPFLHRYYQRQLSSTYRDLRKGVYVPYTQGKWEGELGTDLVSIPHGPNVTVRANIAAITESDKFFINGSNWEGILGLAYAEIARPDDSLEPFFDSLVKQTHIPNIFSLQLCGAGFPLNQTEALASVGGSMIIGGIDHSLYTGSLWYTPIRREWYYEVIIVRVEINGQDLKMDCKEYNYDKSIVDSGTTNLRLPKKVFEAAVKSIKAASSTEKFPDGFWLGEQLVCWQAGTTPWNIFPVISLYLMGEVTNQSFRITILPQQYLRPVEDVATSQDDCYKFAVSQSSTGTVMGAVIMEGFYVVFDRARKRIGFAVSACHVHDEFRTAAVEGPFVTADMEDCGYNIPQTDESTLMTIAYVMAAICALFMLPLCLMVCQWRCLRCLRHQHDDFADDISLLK", "set-up": "dose or concentration left out as unconfirmed", "conditions": "primary Tg2576 neuron cultures, 16 hours"}, "[9]": {"system": "α-secretase", "set-up": "dose or concentration left out as unconfirmed", "conditions": "primary Tg2576 neuron cultures, 16 hours"}, "[10]": {"system": "γ-secretase", "set-up": "dose or concentration left out as unconfirmed", "conditions": "primary Tg2576 neuron cultures, 16 hours"}, "[11]": {"conditions": "Primary Screening, table sorted by Aβ1-40"}, "[12]": {"conditions": "primary screening, table sorted by Aβ1-42"}}, "note": "Entries after “also recorded” stand apart in the source; their conditions may differ. Like-named read-outs stand apart in the source and are kept apart here."}
{"substance": "N-(1-oxopentyl)-N-[[2-(1H-tetrazol-5-yl) [1,1-biphenyl]-4-yl]methyl]-L-valine [Valsartan]", "values": [{"measurement": "MTT (% of ctl)", "setting": "[1]; [11]", "value": "67.4 % of ctl"}, {"measurement": "MTT (% of ctl)", "setting": "[1]; [12]", "value": "67.4 % of ctl"}, {"measurement": "steady state levels in the blood (serum)", "setting": "[2]", "value": "successfully detected steady state levels"}, {"measurement": "EC50", "setting": "[3]; Table IV, dose-response 0.01-100 μM, read-out: EC50 (M): Ab-lowering activity Aβ1-42", "value": "1.79e-05", "unit": "M"}, {"measurement": "EC50", "setting": "[3]; conditioned medium of primary cortico-hippocampal neuron cultures from Tg2576 embryos, 24 hours after treatment, relative to vehicle (1% DMSO) control, read-out: EC50 (molar) Aβ1-42", "value": "1.79e-05", "unit": "M"}, {"measurement": "EC50", "setting": "[3]; secondary dose-response screening 0.01-100 μM, 24 hours, read-out: EC50 (molar) Aβ1-42", "value": "1.79e-05", "unit": "M"}, {"measurement": "in vitro anti-Aβ oligomerization activity compared with other Aβ-lowering antihypertensives", "setting": "[4]", "value": "qualitatively stronger in vitro anti-Aβ oligomerization activity"}, {"measurement": "Aβ1-42 oligomerization (A11 dot-blot)", "setting": "[4]; 24 hours after incubation, vs vehicle", "value": "prevented Aβ1-42 oligomerization"}, {"measurement": "prevention of oligomerization of Aβ1-42 (and Aβ1-40) into >40 kDa HMW species (Western Blot)", "setting": "[4]; valsartan 10 μM, vs vehicle", "value": "> 5", "unit": "fold"}, {"measurement": "LDH (% of ctl)", "setting": "[5]; [11]", "value": "94.1 % of ctl"}, {"measurement": "LDH (at 5F-5 M)", "setting": "[5]; Table IV", "value": "no change"}, {"measurement": "LDH at E-5M % of change", "setting": "[5]; drug at E-5M", "value": 13.0, "unit": "%"}, {"measurement": "LDH (% of ctl)", "setting": "[5]; [12]", "value": "94.1 % of ctl"}, {"measurement": "Ab1-40 (% of ctl)", "setting": "[6]; [11]", "value": "51.6 % of ctl"}, {"measurement": "EC50", "setting": "[6]; Table IV, dose-response 0.01-100 μM, read-out: EC50 (M): Ab-lowering activity Abeta1-40", "value": "1.44e-05", "unit": "M"}, {"measurement": "EC50", "setting": "[6]; conditioned medium of primary cortico-hippocampal neuron cultures from Tg2576 embryos, 24 hours after treatment, relative to vehicle (1% DMSO) control, read-out: EC50 (molar) Aβ1-40", "value": "1.44e-05", "unit": "M"}, {"measurement": "reduced Aβ1-40", "setting": "[6]; primary screening, <85% of ctl", "value": "reduced Aβ1-40"}, {"measurement": "Ab1-40 (% of ctl)", "setting": "[6]; primary screening, Tg2576 neuron cultures, table sorted by Aβ1-42", "value": "51.6 % of ctl"}, {"measurement": "EC50", "setting": "[6]; secondary dose-response screening 0.01-100 μM, 24 hours, read-out: EC50 (molar) Aβ1-40", "value": "1.44e-05", "unit": "M"}, {"measurement": "systolic, diastolic, MAP blood pressure", "setting": "[7]; WT mice, valsartan", "value": "no detectable changes in systolic, diastolic, or MAP"}, {"measurement": "systolic, diastolic, MAP blood pressure", "setting": "[7]; normotensive Tg2576 mice, valsartan 10 or 40 mg/kg/day, chronic", "value": "did not significantly influence systolic, diastolic, or MAP; also recorded: did not influence systolic, diastolic, and MAP blood pressure; also recorded: failed to produce a statistically significant change"}, {"measurement": "β-secretase activity", "setting": "[8]", "value": "selectively inhibition of β-secretase activity"}, {"measurement": "α-secretase activity", "setting": "[9]", "value": "no detectable change"}, {"measurement": "γ-secretase activity", "setting": "[10]", "value": "no detectable change"}]}
